Counter-ions that a name gives are not always drawn.
Biological target: T1, human cloned 5-HT6 receptors (Homo sapiens, UniProt P50406)
T1 construct: expressed in transfected cells; host or cells: HeLa cells
Assay: 5-HT6 binding affinity, [3H]-LSD displacement
Details: membranes of Hela cells expressing human cloned 5-HT6 receptors; [3H]-LSD 3.0 nM; 120 minutes at room temperature
Procedure: The affinity of test compounds for the serotonin 5-HT6 receptor was evaluated in the following manner. Cultured Hela cells expressing human cloned 5-HT6 receptors were harvested and centrifuged at low speed (1,000×g) for 10.0 minutes to remove the culture media. The harvested cells were suspended in half volume of fresh physiological phosphate buffered saline solution and recentrifuged at the same speed. This operation was repeated. The collected cells were then homogenized in ten volumes of 50 mM Tris.HCl (pH 7.4) and 0.5 mM EDTA. The homogenate was centrifuged at 40,000×g for 30.0 min and the precipitate was collected. The obtained pellet was resuspended in 10 volumes of Tris.HCl buffer and recentrifuged at the same speed. The final pellet was suspended in a small volume of Tris.HCl buffer and the tissue protein content was determined in aliquots of 10-25 μl volumes. […] The volume of the suspended cell membranes was adjusted to give a tissue protein concentration of 1.0 mg/ml of suspension. The prepared membrane suspension (10 times concentrated) was aliquoted in 1.0 ml volumes and stored at −70° C. until used in subsequent binding experiments.
The bound complex caught on the filter disk was allowed to air dry and the radioactivity is measured in a Packard TopCount® equipped with six photomultiplier detectors, after the addition of 40.0 μl Microscint®-20 scintillant to each shallow well. The unifilter plate was heat-sealed and counted in a PackardTopCount® with a tritium efficiency of 31.0%.
Specific binding to the 5-HT6 receptor was defined as the total radioactivity bound less the amount bound in the presence of 10.0 μM unlabeled methiothepin. Binding in the presence of varying concentrations of test compound was expressed as a percentage of specific binding in the absence of test compound. The results were plotted as log % bound versus log concentration of test compound. […] A linear regression line of data points was plotted, from which the IC50 value is determined and the Ki value is determined based upon the following equation: Ki=IC50/(1+L/KD) where L was the concentration of the radioactive ligand used and KD is the dissociation constant of the ligand for the receptor, both expressed in nM.

T1 sequence (P50406 whole entry): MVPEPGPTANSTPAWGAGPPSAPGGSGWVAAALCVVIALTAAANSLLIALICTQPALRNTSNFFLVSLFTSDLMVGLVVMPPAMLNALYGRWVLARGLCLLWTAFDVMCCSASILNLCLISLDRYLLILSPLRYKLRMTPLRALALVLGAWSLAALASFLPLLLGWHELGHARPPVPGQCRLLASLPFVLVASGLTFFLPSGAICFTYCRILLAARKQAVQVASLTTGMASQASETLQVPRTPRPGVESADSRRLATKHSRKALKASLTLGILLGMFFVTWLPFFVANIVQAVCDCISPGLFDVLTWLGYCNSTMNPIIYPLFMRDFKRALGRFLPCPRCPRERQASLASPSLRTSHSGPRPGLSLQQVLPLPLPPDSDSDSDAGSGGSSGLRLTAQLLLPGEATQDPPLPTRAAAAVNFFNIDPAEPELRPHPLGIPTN

**Q.** With `O=S(=O)(c1ccccc1)c1n[nH]c2ccc(CCCNC3CC3)cc12` [Example 178, N{3-[3-(Phenylsulfonyl)-1H-indazol-5-yl]propyl}cyclopropanamine trifluoroacetate] as the compound, how does the Ki read?
**A.** 11 to 25 nM

**Q.** With `CN(C)CCCc1ccc2[nH]nc(S(=O)(=O)c3ccccc3)c2c1` [Example 177, N,N-Dimethyl-N-{3-[3-(phenylsulfonyl)-1H-indazol-5-yl]propyl}amine trifluoroacetate] as the compound, how does the Ki read?
**A.** 11 to 25 nM

**Q.** With `CNCCOc1cccc2c(S(=O)(=O)c3ccccc3)nn(C)c12` [Example 101] as the compound, how does the Ki read?
**A.** 11 to 25 nM

**Q.** For `O=S(=O)(c1cccc2ccccc12)c1n[nH]c2c(OCCN3CCCCC3)cccc12` [Example 80], which Ki is on record?
**A.** 0.01 to 10 nM

**Q.** With `O=S(=O)(c1ccccc1)c1n[nH]c2ccc(OCCN3CCCCC3)cc12` [Example 3, 3-Benzenesulfonyl-5-(2-piperidin-1-yl-ethoxy)-1H-indazole] as the compound, how does the Ki read?
**A.** 26 to 35 nM

**Q.** For `O=C(NCCN1CCCCC1)c1ccc2[nH]nc(S(=O)(=O)c3cccc4ccccc34)c2c1` [Example 152, 3-(1-Naphtylsulfonyl)-N-(2-piperidin-1-ylethyl)-1H-indazole-5-carboxamide], which Ki is on record?
**A.** > 45 nM

**Q.** For `CCCCNCCOc1cccc2c(S(=O)(=O)c3ccccc3)n[nH]c12` [Example 91], which Ki is on record?
**A.** 0.01 to 10 nM

**Q.** For `C[C@H]1CN(Cc2ccc3[nH]nc(S(=O)(=O)c4cccc5ccccc45)c3c2)CCN1` [Example 199], which Ki is on record?
**A.** 11 to 25 nM

**Q.** Which Ki does the source give for `CCNCCOc1cc(F)cc2c(S(=O)(=O)c3cccc4ccccc34)n[nH]c12` [Example 114] here?
**A.** 0.01 to 10 nM

**Q.** With `CCCN(C)CCCCOc1ccc2[nH]nc(S(=O)(=O)c3cccc4ccccc34)c2c1` [Example 65] as the compound, how does the Ki read?
**A.** 0.01 to 10 nM

**Q.** For `CN(C)CCOc1ccc2[nH]nc(S(=O)(=O)c3cccc4ccccc34)c2c1` [Example 27, Dimethyl-{2-[3-(naphthalene-1-sulfonyl)-1H-indazol-5-yloxy]-ethyl}-amine], which Ki is on record?
**A.** 0.01 to 10 nM

**Q.** For `O=S(=O)(c1cccc2ccccc12)c1n[nH]c2ccc(CN3CCNCC3)cc12` [Example 195, 3-(1-Naphthylsulfonyl)-5-(piperazin-1-ylmethyl)-1H-indazole], which Ki is on record?
**A.** 0.01 to 10 nM

**Q.** Which Ki does the source give for `O=S(=O)(c1cccc2ccccc12)c1n[nH]c2ccc(CN[C@H]3CCNC3)cc12` [Example 154, (3S)—N-{([3-(1-Naphthylsulfonyl)-1H-indazol-5-yl]methyl}pyrrolidin-3-amine Hydrochloride] here?
**A.** 11 to 25 nM

**Q.** With `CNCCOc1cc(F)cc2c(S(=O)(=O)c3cccc4ccccc34)nn(Cc3cccc(Cl)c3)c12` [Example 107, (2-{[1-(3-chlorobenzyl)-5-fluoro-3-(1-naphthylsulfonyl)-1H-indazol-7-yl]oxy}ethyl)methylamine Hydrochloride] as the compound, how does the Ki read?
**A.** > 45 nM

**Q.** Which Ki does the source give for `O=S(=O)(c1cccc2ccccc12)c1n[nH]c2c(OCCN3CCCCC3)cc(F)cc12` [Example 117] here?
**A.** 0.01 to 10 nM

**Q.** Which Ki does the source give for `NCCNc1cccc2c(S(=O)(=O)c3cccc4ccccc34)n[nH]c12` [Example 161, N1-[3-(Naphthalene-1-sulfonyl)-1H-indazol-7-yl]-ethane-1,2-diamine dihydrochloride] here?
**A.** 11 to 25 nM

**Q.** Which Ki does the source give for `CCN(C)CCCOc1ccc2[nH]nc(S(=O)(=O)c3cccc4ccccc34)c2c1` [Example 17, Ethyl-methyl-{3-[3-(naphthalene-1-sulfonyl)-1H-indazol-5-yloxy]-propyl}-amine] here?
**A.** 0.01 to 10 nM

**Q.** With `NCCOc1cccc2c(S(=O)(=O)c3ccccc3)n[nH]c12` [Example 139] as the compound, how does the Ki read?
**A.** 0.01 to 10 nM

**Q.** With `CN(C)CCOc1ccc2[nH]nc(S(=O)(=O)c3ccccc3)c2c1` [Example 1, [2-(3-Benzenesulfonyl-1H-indazol-5-yloxy)-ethyl]-dimethyl-amine] as the compound, how does the Ki read?
**A.** 11 to 25 nM

**Q.** Which Ki does the source give for `CCNCCOc1ccc2c(c1)c(S(=O)(=O)c1cccc3ccccc13)nn2Cc1ccccc1` [Example 53, {2-[1-Benzyl-3-(naphthalene-1-sulfonyl)-1H-indazol-5-yloxy]-ethyl}-ethyl-amine] here?
**A.** 11 to 25 nM

**Q.** Which Ki does the source give for `CCNCCOc1cccc2c(S(=O)(=O)c3ccccc3)nn(Cc3cccc(Cl)c3)c12` [Example 83] here?
**A.** 26 to 35 nM

**Q.** For `NCCOc1cccc2[nH]nc(S(=O)(=O)c3cccc4ccccc34)c12` [Example 141], which Ki is on record?
**A.** 11 to 25 nM

**Q.** `CCNCCOc1cccc2c(S(=O)(=O)c3ccccc3)nn(C)c12` [Example 102] was tested. Which Ki did it give?
**A.** 26 to 35 nM

**Q.** With `O=S(=O)(c1cccc2ccccc12)c1n[nH]c2ccc(OCCCNC3CCCC3)cc12` [Example 21, Cyclopentyl-{3-[3-(naphthalene-1-sulfonyl)-1H-indazol-5-yloxy]-propyl}-amine] as the compound, how does the Ki read?
**A.** 0.01 to 10 nM

**Q.** How did the Ki turn out when `CCN(CC)CCC(=O)Nc1ccc2c(S(=O)(=O)c3cccc4ccccc34)n[nH]c2c1` [Example 169, 3-Diethylamino-N-[3-(naphthalene-1-sulfonyl)-1H-indazol-6-yl]-propionamide hydrochloride] was run?
**A.** > 45 nM

**Q.** With `O=S(=O)(c1ccccc1)c1nn(Cc2cccc(Cl)c2)c2c(OCCN3CCCC3)cccc12` [Example 86] as the compound, how does the Ki read?
**A.** 26 to 35 nM

**Q.** Which Ki does the source give for `CCN(CC)CCOc1cccc2c(S(=O)(=O)c3ccccc3)n[nH]c12` [Example 90] here?
**A.** 0.01 to 10 nM

**Q.** How did the Ki turn out when `CCN(C)CCOc1ccc2c(c1)c(S(=O)(=O)c1cccc3ccccc13)nn2Cc1ccccc1` [Example 47, {2-[1-Benzyl-3-(naphthalene-1-sulfonyl)-1H-indazol-5-yloxy]-ethyl}-ethyl-methyl-amine] was run?
**A.** 26 to 35 nM

**Q.** With `CN(C)CCOCc1ccc2[nH]nc(S(=O)(=O)c3cccc4ccccc34)c2c1` [Example 156, N,N-Dimethyl-2-{[3-(1-naphthylsulfonyl)-1H-indazol-5-yl]methoxy}ethanamine] as the compound, how does the Ki read?
**A.** 0.01 to 10 nM

**Q.** `CCN(CC)CCOc1ccc2c(c1)c(S(=O)(=O)c1cccc3ccccc13)nn2Cc1cccc(Cl)c1` [Example 56, {2-[1-(3-Chloro-benzyl)-3-(naphthalene-1-sulfonyl)-1H-indazol-5-yloxy]-ethyl}-diethyl-amine] was tested. Which Ki did it give?
**A.** > 45 nM

**Q.** With `O=S(=O)(c1cccc2ccccc12)c1n[nH]c2ccc(OCCN3CCOCC3)cc12` [Example 39, 5-(2-Morpholin-4-yl-ethoxy)-3-(naphthalene-1-sulfonyl)-1H-indazole] as the compound, how does the Ki read?
**A.** 11 to 25 nM

**Q.** For `N[C@@H]1CCN(Cc2ccc3[nH]nc(S(=O)(=O)c4cccc5ccccc45)c3c2)C1` [Example 201], which Ki is on record?
**A.** 0.01 to 10 nM

**Q.** With `O=C(CCN1CCCCC1)Nc1cccc2c(S(=O)(=O)c3cccc4ccccc34)n[nH]c12` [Example 163, N-[3-(Naphthalene-1-sulfonyl)-1H-indazol-7-yl]-3-piperidin-1-yl-propionamide hydrochloride] as the compound, how does the Ki read?
**A.** 11 to 25 nM

**Q.** With `CCN(CC)CCOc1cc(F)cc2c(S(=O)(=O)c3cccc4ccccc34)n[nH]c12` [Example 116] as the compound, how does the Ki read?
**A.** 11 to 25 nM

**Q.** For `O=S(=O)(c1ccccc1)c1n[nH]c2c(CCNC3CC3)cccc12` [Example 172, N-{2-[3-(phenylsulfonyl)-1H-indazol-7-yl]ethyl}cyclopropanamine hydrochloride], which Ki is on record?
**A.** 11 to 25 nM

**Q.** With `CN(C)CCN(C)Cc1ccc2[nH]nc(S(=O)(=O)c3cccc4ccccc34)c2c1` [Example 153, N,N, N′-Trimethyl-N′-{[3-(1-naphthylsulfonyl)-1H-indazol-5-yl]methyl}ethane-1,2-diamine] as the compound, how does the Ki read?
**A.** 11 to 25 nM

**Q.** Which Ki does the source give for `CCNCCOc1cc(F)cc2c(S(=O)(=O)c3cccc4ccccc34)nn(Cc3cccc(Cl)c3)c12` [Example 108] here?
**A.** > 45 nM

**Q.** For `CN(C)CCc1ccc2[nH]nc(S(=O)(=O)c3ccccc3)c2c1` [Example 176, N,N-Dimethyl-N-{2-[3-(phenylsulfonyl)-1H-indazol-5-yl]ethyl}amine hydrochloride], which Ki is on record?
**A.** 11 to 25 nM

**Q.** For `CNCCOc1cccc2c(S(=O)(=O)c3cccc4ccccc34)n[nH]c12` [Example 77], which Ki is on record?
**A.** 0.01 to 10 nM
